{"source": "patent US8791118B2", "about": "“Pyridopyrazines as highly selective ras-Raf-Mek-Erk signal transduction pathway inhibitors” (Aeterna Zentaris GmbH, priority 2011, dated 2014)", "key": {"Erk2": {"target": "Erk2 (Homo sapiens, UniProt P28482)", "sequence (P28482 2-360 limits assumed)": "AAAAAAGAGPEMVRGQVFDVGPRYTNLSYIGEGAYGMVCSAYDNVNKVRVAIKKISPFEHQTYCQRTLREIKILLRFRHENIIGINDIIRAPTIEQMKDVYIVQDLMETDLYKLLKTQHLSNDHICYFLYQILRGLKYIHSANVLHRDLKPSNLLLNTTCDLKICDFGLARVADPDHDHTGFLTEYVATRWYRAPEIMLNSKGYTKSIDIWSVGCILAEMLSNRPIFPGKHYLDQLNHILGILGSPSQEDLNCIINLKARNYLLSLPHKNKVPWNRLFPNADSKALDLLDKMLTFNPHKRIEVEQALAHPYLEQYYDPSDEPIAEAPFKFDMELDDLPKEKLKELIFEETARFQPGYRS", "assay": "Erk2 alpha kinase assay (cell-free, ALPHA technology)", "type": "biochemical", "conditions": "10 μM ATP", "method": "The inhibitory effect of the compounds according to the invention was tested on various serine/threonine, tyrosine and lipid kinases in enzymatic assays. Recombinant human kinases such as, for example, Erk2, were used in this case, partly as full-length kinases, partly as shortened fragments, but at least consisting of the functional kinase domains. The commercial kinase proteins (Proqinase, Upstate) were used as recombinant fusion proteins with GST (glutathion-S-transferase) or His-Tag. Depending on the type of substrate, the various kinase reactions were quantified by means of suitable ALPHA™ beads (Perkin-Elmer). The substance testing is described in detail hereinafter for the Erk assay. […] a) MAPK-ALPHAs (e.g. […] The fluorescence was detected the following morning in a Envision plate reader (Perkin-Elmer). The %-inhibition values per substance concentration were calculated by means of the following formula from the raw data determined in the Envision plate reader[…]: Eight determinations were made for each control and two for the substance samples. […] The IC50 values were determined using GraphPadPrism."}, "Hct116": {"system": "Hct116", "assay": "XTT assay for anti-proliferative effect", "type": "cell-based", "conditions": "Homo sapiens, HCT-116; Hct116 tumour cell line, ~48 h incubation", "method": "The principle of this test is based on the intracellular reduction of the tetrazolium dye XTT (sodium 3′-[1-(phenylaminocarbonyl)-3,4-tetrazolium]-bis(4-methoxy-6-nitro)benzene sulfonic acid, Sigma) to a formazan dye by mitochondrial dehydrogenases. The dye is only formed by metabolically active cells and its photometrically measurable intensity is a quantitative indicator for the presence of living cells. The reduction of dye formation by incubation of the cells with substances serves as a parameter for the anti-proliferative effect.\nThe tumour cell lines (ATCC) were injected into 96-well microtitre plates in a defined cell number (1250 cells/well for Hct116) and then incubated overnight in an incubator at 37° C., 5% CO2 and 95% air humidity. The test substances were prepared as stock solutions (10 mM) in DMSO. To determine the EC50 values the potential inhibitor substances were added to the cells in half-logarithmically graded dilutions, resulting in final concentrations of 1.58 nM-50 μM. The cell plates were then incubated for ˜48 h in an incubator at 37° C., 5% CO2 and 95% air humidity.\nFor the detection reaction the substrate XTT was mixed with PMS (N-Methyl dibenzopyrazine methylsulfate, Sigma) and added to the cells so that a final concentration of 325 μg XTT/ml and 2.5 μg PMS/ml was obtained. It was then incubated for 3 h at 37° C., 95% air humidity. The formazan salt formed by the cellular dehydrogenases could then be quantified by adsorption at 490 nm.\nThe % inhibition value was evaluated by means of the following formula from the values for the optical densities measured in each case at 490 nm:\nEight determinations were made for each control and two for the substance samples. The 0% control contains no cells, the 100% control (proliferation control) contains no test substance. The EC50 values were determined using GraphPadPrism."}}, "data": [{"smiles": "O=C(NCCCCc1ccccc1)Nc1ccc2ncc(-c3ccc(OCCOCCO)cc3)nc2n1", "note": "[Compound 201, 1-(3-{4-[2-(2-Hydroxy-ethoxy)-ethoxy]-phenyl}-pyrido[2,3-b]pyrazin-6-yl)-3-(4-phenyl-butyl)-urea]", "values": [{"measurement": "IC50", "setting": "Erk2", "result": 39, "unit": "nM"}, {"measurement": "EC50", "setting": "Hct116", "result": 888, "unit": "nM"}, {"measurement": "melting point", "result": "192 to 194", "unit": "°C"}]}, {"smiles": "O=C(NCCCCc1ccccc1)Nc1ccc2ncc(-c3ccc(O)cc3)nc2n1", "note": "[Compound 160, 1-[3-(4-Hydroxy-phenyl)-pyrido[2,3-b]pyrazin-6-yl]-3-(4-phenyl-butyl)-urea]", "values": [{"measurement": "IC50", "setting": "Erk2", "result": 1, "unit": "nM"}, {"measurement": "EC50", "setting": "Hct116", "result": 420, "unit": "nM"}, {"measurement": "melting point", "result": "233 to 235", "unit": "°C"}]}, {"smiles": "O=C(NCCCCc1ccccc1)Nc1ccc2ncc(-c3cn[nH]c3)nc2n1", "note": "[Compound 159, 1-(4-Phenyl-butyl)-3-[3-(1H-pyrazol-4-yl)-pyrido[2,3-b]pyrazin-6-yl]-urea]", "values": [{"measurement": "IC50", "setting": "Erk2", "result": 1, "unit": "nM"}, {"measurement": "EC50", "setting": "Hct116", "result": 844, "unit": "nM"}, {"measurement": "melting point", "result": "231 to 232", "unit": "°C"}]}, {"smiles": "CC(CCCc1ccccc1)NC(=O)Nc1ccc2ncc(-c3cnn(C)c3)nc2n1", "note": "(stereo not drawn) [Compound 164, 1-(1-Methyl-4-phenyl-butyl)-3-[3-(1-methyl-1H-pyrazol-4-yl)-pyrido[2,3-b]pyrazin-6-yl]-urea]", "values": [{"measurement": "IC50", "setting": "Erk2", "result": 2, "unit": "nM"}, {"measurement": "EC50", "setting": "Hct116", "result": 557, "unit": "nM"}, {"measurement": "melting point", "result": "204 to 208", "unit": "°C"}]}, {"smiles": "CCCn1cc(-c2cnc3ccc(NC(=O)N[C@H](C)CCCc4ccccc4)nc3n2)cn1", "note": "[Compound 170, 1-((R)-1-Methyl-4-phenyl-butyl)-3-[3-(1-propyl-1H-pyrazol-4-yl)-pyrido[2,3-b]pyrazin-6-yl]-urea]", "values": [{"measurement": "IC50", "setting": "Erk2", "result": 4, "unit": "nM"}, {"measurement": "EC50", "setting": "Hct116", "result": 149, "unit": "nM"}, {"measurement": "melting point", "result": "185 to 188", "unit": "°C"}]}]}
